#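 All cell lines were grown in 96-well plates and treated with compound for 48 hours. Here, GI50 denotes the concentration required for 50% inhibition of growth.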 Calls of active or inactive are those of the source. Rule as the data show it: active = GI50 up to about 1.1 µM and inactive = higher.
# What was measured:
# Experiment in all cases: NCI tumour cell line growth inhibition, 48 h
# [1] = tested on: 786-0
# [2] = tested on: A498
# [3] = tested on: A549
# [4] = tested on: ACHN
# [5] = tested on: CCRF-CEM
# [6] = tested on: COLO 205
# [7] = tested on: DU-145
# [8] = tested on: EKVX
# [9] = tested on: HCT-116
# [10] = tested on: HCT-15
# [11] = tested on: HOP-62
# [12] = tested on: HT-29
# [13] = tested on: Hs-578T
# [14] = tested on: IGROV-1
# [15] = tested on: K562
# [16] = tested on: KM12
# [17] = tested on: LOX IMVI
# [18] = tested on: M14
# [19] = tested on: MCF7
# [20] = tested on: MDA-MB-231
# [21] = tested on: MDA-MB-435
# [22] = tested on: MDA-N
# [23] = tested on: MOLT-4
# [24] = tested on: Malme-3M
# [25] = tested on: NCI-H226
# [26] = tested on: NCI-H23
# [27] = tested on: NCI/ADR-RES
# [28] = tested on: OVCAR-3
# [29] = tested on: OVCAR-4
# [30] = tested on: OVCAR-5
# [31] = tested on: OVCAR-8
# [32] = tested on: PC-3
# [33] = tested on: RPMI-8226
# [34] = tested on: SF-268
# [35] = tested on: SF-295
# [36] = tested on: SF-539
# [37] = tested on: SK-MEL-28
# [38] = tested on: SK-MEL-2
# [39] = tested on: SK-MEL-5
# [40] = tested on: SK-OV-3
# [41] = tested on: SN12C
# [42] = tested on: SNB-19
# [43] = tested on: SNB-75
# [44] = tested on: SR
# [45] = tested on: SW-620
# [46] = tested on: TK-10
# [47] = tested on: U-251
# [48] = tested on: UACC-257
# [49] = tested on: UACC-62
# [50] = tested on: UO-31
# [51] = tested on: HL-60
# [52] = tested on: HOP-92
# [53] = tested on: NCI-H460
# [54] = tested on: NCI-H522
# [55] = tested on: T47D
# [56] = tested on: CAKI-1
# [57] = tested on: HCC 2998
# [58] = tested on: RXF 393
smiles,measurement,setting,value
CC(=O)Oc1cc(OC(C)=O)c2c(C)cc(=O)oc2c1,GI50,[1],> 100 µM (inactive)
same,GI50,[2],41 µM (inactive)
same,GI50,[3],> 100 µM (inactive)
same,GI50,[4],> 100 µM (inactive)
same,GI50,[5],> 100 µM (inactive)
same,GI50,[6],> 100 µM (inactive)
same,GI50,[7],> 100 µM (inactive)
same,GI50,[8],> 100 µM (inactive)
same,GI50,[9],> 100 µM (inactive)
same,GI50,[10],> 100 µM
same,GI50,[11],> 100 µM (inactive)
same,GI50,[12],> 100 µM (inactive)
same,GI50,[13],> 100 µM (inactive)
same,GI50,[14],95.7 µM (inactive)
same,GI50,[15],> 100 µM (inactive)
same,GI50,[16],> 100 µM (inactive)
same,GI50,[17],> 100 µM (inactive)
same,GI50,[18],87.3 µM (inactive)
same,GI50,[19],76.2 µM (inactive)
same,GI50,[20],> 100 µM (inactive)
same,GI50,[21],> 100 µM (inactive)
same,GI50,[22],> 100 µM (inactive)
same,GI50,[23],> 100 µM (inactive)
same,GI50,[24],> 100 µM (inactive)
same,GI50,[25],> 100 µM (inactive)
same,GI50,[26],> 100 µM (inactive)
same,GI50,[27],> 100 µM (inactive)
same,GI50,[28],> 100 µM (inactive)
same,GI50,[29],> 100 µM (inactive)
same,GI50,[30],> 100 µM (inactive)
same,GI50,[31],> 100 µM (inactive)
same,GI50,[32],> 100 µM (inactive)
same,GI50,[33],> 100 µM (inactive)
same,GI50,[34],> 100 µM (inactive)
same,GI50,[35],> 100 µM (inactive)
same,GI50,[36],36.1 µM (inactive)
same,GI50,[37],> 100 µM (inactive)
same,GI50,[38],> 100 µM (inactive)
same,GI50,[39],> 100 µM (inactive)
same,GI50,[40],> 100 µM (inactive)
same,GI50,[41],> 100 µM (inactive)
same,GI50,[42],> 100 µM (inactive)
same,GI50,[43],66.8 µM (inactive)
same,GI50,[44],> 100 µM (inactive)
same,GI50,[45],> 100 µM (inactive)
same,GI50,[46],97.7 µM (inactive)
same,GI50,[47],> 100 µM (inactive)
same,GI50,[48],> 100 µM (inactive)
same,GI50,[49],> 100 µM (inactive)
same,GI50,[50],67.3 µM (inactive)
CC1C(=O)C(C)C(c2ccccc2)N(C)C1c1ccccc1 (stereo not drawn),GI50,[51],20.7 µM (inactive)
same,GI50,[12],28.6 µM (inactive)
same,GI50,[23],19.9 µM (inactive)
same,GI50,[30],50.9 µM (inactive)
same,GI50,[33],21.8 µM (inactive)
same,GI50,[44],20.2 µM (inactive)
c1cc2nnc1SCCSCCSCCSc1ccc(nn1)SCCSCCSCCS2,GI50,[3],> 100 µM (inactive)
same,GI50,[4],> 100 µM (inactive)
same,GI50,[6],> 100 µM (inactive)
same,GI50,[8],> 100 µM (inactive)
same,GI50,[10],> 100 µM
same,GI50,[11],44.9 µM (inactive)
same,GI50,[52],57.4 µM (inactive)
same,GI50,[12],> 100 µM (inactive)
same,GI50,[13],64.7 µM (inactive)
same,GI50,[14],> 100 µM (inactive)
same,GI50,[17],> 100 µM (inactive)
same,GI50,[18],> 100 µM (inactive)
same,GI50,[20],> 100 µM (inactive)
same,GI50,[24],> 100 µM (inactive)
same,GI50,[53],> 100 µM (inactive)
same,GI50,[54],> 100 µM (inactive)
same,GI50,[27],> 100 µM (inactive)
same,GI50,[28],> 100 µM (inactive)
same,GI50,[29],> 100 µM (inactive)
same,GI50,[31],> 100 µM (inactive)
same,GI50,[32],> 100 µM (inactive)
same,GI50,[34],> 100 µM (inactive)
same,GI50,[35],> 100 µM (inactive)
same,GI50,[38],> 100 µM (inactive)
same,GI50,[39],> 100 µM (inactive)
same,GI50,[40],> 100 µM (inactive)
same,GI50,[41],> 100 µM (inactive)
same,GI50,[43],45.7 µM (inactive)
same,GI50,[44],> 100 µM (inactive)
same,GI50,[45],> 100 µM (inactive)
same,GI50,[55],> 100 µM (inactive)
same,GI50,[48],> 100 µM (inactive)
same,GI50,[49],> 100 µM (inactive)
Cc1cccc(-c2cc(=S)c3cc(N4CCCC4)ccc3[nH]2)c1,GI50,[1],> 100 µM (inactive)
same,GI50,[2],> 100 µM (inactive)
same,GI50,[3],> 100 µM (inactive)
same,GI50,[4],> 100 µM (inactive)
same,GI50,[56],> 100 µM (inactive)
same,GI50,[5],> 100 µM (inactive)
same,GI50,[6],> 100 µM (inactive)
same,GI50,[7],> 100 µM (inactive)
same,GI50,[8],> 100 µM (inactive)
same,GI50,[57],> 100 µM (inactive)
same,GI50,[9],> 100 µM (inactive)
same,GI50,[10],> 100 µM
same,GI50,[11],> 100 µM (inactive)
same,GI50,[52],> 100 µM (inactive)
same,GI50,[13],> 100 µM (inactive)
same,GI50,[15],> 100 µM (inactive)
same,GI50,[16],> 100 µM (inactive)
same,GI50,[17],> 100 µM (inactive)
same,GI50,[18],> 100 µM (inactive)
same,GI50,[19],> 100 µM (inactive)
same,GI50,[20],> 100 µM (inactive)
same,GI50,[21],> 100 µM (inactive)
same,GI50,[22],> 100 µM (inactive)
same,GI50,[23],> 100 µM (inactive)
same,GI50,[25],> 100 µM (inactive)
same,GI50,[27],> 100 µM (inactive)
same,GI50,[28],> 100 µM (inactive)
same,GI50,[29],> 100 µM (inactive)
same,GI50,[30],> 100 µM (inactive)
same,GI50,[32],> 100 µM (inactive)
same,GI50,[33],> 100 µM (inactive)
same,GI50,[58],> 100 µM (inactive)
same,GI50,[34],> 100 µM (inactive)
same,GI50,[35],> 100 µM (inactive)
same,GI50,[36],> 100 µM (inactive)
same,GI50,[37],> 100 µM (inactive)
same,GI50,[38],> 100 µM (inactive)
same,GI50,[39],> 100 µM (inactive)
same,GI50,[40],> 100 µM (inactive)
same,GI50,[41],> 100 µM (inactive)
same,GI50,[42],> 100 µM (inactive)
same,GI50,[43],> 100 µM (inactive)
same,GI50,[45],> 100 µM (inactive)
same,GI50,[55],> 100 µM (inactive)
same,GI50,[46],> 100 µM (inactive)
same,GI50,[47],> 100 µM (inactive)
same,GI50,[48],> 100 µM (inactive)
same,GI50,[49],> 100 µM (inactive)
same,GI50,[50],> 100 µM (inactive)

# Source: ChEMBL document CHEMBL1201862, “PubChem BioAssay data set” (2004)
